SMILES strings stand for the structures.

Usually EC50 stands for the midpoint of the concentration-response curve. A higher EC50 goes with weaker potency.

This experiment deals with Human immunodeficiency virus 1. Nature of the experiment: Inhibition of HIV-1 replication in human peripheral blood mononuclear cells. Format: functional, organism-based.
For `Cc1nn([C@H]2C[C@H](N=[N+]=[N-])[C@@H](CO)O2)c(=O)[nH]c1=O`, the EC50 is more than 100 µM. As for `CNc1cn([C@H]2C[C@H](N=[N+]=[N-])[C@@H](CO)O2)c(=O)[nH]c1=O`, the EC50 is more than 100 µM.

Take `[N-]=[N+]=N[C@H]1C[C@H](n2cc(Br)c(=O)[nH]c2=O)O[C@@H]1CO`: the EC50 was found to be 1 µM. Compound `[N-]=[N+]=N[C@@H]1CC(n2cc(I)c(=O)[nH]c2=O)O[C@@H]1CO` (some centres not stated) displayed an EC50 of 1.1 µM. As for `CN(C)c1cn([C@H]2C[C@H](N=[N+]=[N-])[C@@H](CO)O2)c(=O)[nH]c1=O`, the figure is more than 100 µM; as for `[N-]=[N+]=N[C@H]1C[C@H](n2ccc(N)nc2=O)O[C@@H]1CO`, 1.2 µM; as for `COc1cn([C@H]2C[C@H](N=[N+]=[N-])[C@@H](CO)O2)c(=O)[nH]c1=O`, 70 µM. As for `[N-]=[N+]=N[C@H]1C[C@H](n2ccc(=O)[nH]c2=O)O[C@@H]1CO` [NAVURIDINE], the figure is 0.2 µM; as for `Cc1cn([C@H]2C[C@H](N=[N+]=[N-])[C@@H](CO)O2)c(=O)[nH]c1=O` [ZIDOVUDINE], 0.002 µM. As to `CSc1cn([C@H]2C[C@H](N=[N+]=[N-])[C@@H](CO)O2)c(=O)[nH]c1=O`, the EC50 was more than 100 µM.

For `[N-]=[N+]=N[C@H]1C[C@H](n2cc(F)c(=O)[nH]c2=O)O[C@@H]1CO`, the EC50 is 4.8 µM. As for `Cc1cn([C@H]2C[C@H](N=[N+]=[N-])[C@@H](CO)O2)c(=O)n(/C=C/C=O)c1=O`, the figure is 0.01 µM. `C=CCOc1cn([C@H]2C[C@H](N=[N+]=[N-])[C@@H](CO)O2)c(=O)[nH]c1=O` showed an EC50 of more than 100 µM. In turn, `[N-]=[N+]=N[C@H]1C[C@H](n2cc(O)c(=O)[nH]c2=O)O[C@@H]1CO` registered an EC50 of approximately 10 µM. As for `[N-]=[N+]=N[C@H]1C[C@H](n2cc(F)c(N)nc2=O)O[C@@H]1CO`, the figure is 1 µM. Next, `CCOc1cn([C@H]2C[C@H](N=[N+]=[N-])[C@@H](CO)O2)c(=O)[nH]c1=O`: 54 µM; `N#CSc1cn([C@H]2C[C@H](N=[N+]=[N-])[C@@H](CO)O2)c(=O)[nH]c1=O`: 5.1 µM; `[N-]=[N+]=N[C@H]1C[C@H](n2cc(N)c(=O)[nH]c2=O)O[C@@H]1CO`: 6.2 µM. As for `C#CCOc1cn([C@H]2C[C@H](N=[N+]=[N-])[C@@H](CO)O2)c(=O)[nH]c1=O`, the figure is 38 µM.

The compound `N#CCOc1cn([C@H]2C[C@H](N=[N+]=[N-])[C@@H](CO)O2)c(=O)[nH]c1=O` registered an EC50 of 16 µM. `[N-]=[N+]=N[C@H]1C[C@H](n2cc(C(F)(F)F)c(=O)[nH]c2=O)O[C@@H]1CO` registered an EC50 of more than 100 µM. Next, `Cc1cn([C@H]2C[C@H](N=[N+]=[N-])[C@@H](CO)O2)c(=O)nc1N`: 5.1 µM.

The record behind these values is ChEMBL document CHEMBL1124028, “Synthesis and antiviral activity of various 3'-azido analogues of pyrimidine deoxyribonucleosides against human immunodeficiency virus (HIV-1, HTLV-III/LAV)” (J Med Chem, 1988).
